Common to all, as to assay type: functional
The nature of assay [1]: Growth inhibition of human HL60 cells at 30 uM after 72 hrs by MTT assay. The following applies: HL-60, 72 h, read-out: GI.
Assay [2] in a line: Growth inhibition of human HL60 cells at 50 uM after 72 hrs by MTT assay. As to conditions: HL-60, 72 h, read-out: GI.
Assay [3] can be described thus: Growth inhibition of human MIAPaCa2 cells at 30 uM after 72 hrs by MTT assay. The following applies: MIA PaCa-2, 72 h, read-out: GI.
Assay [4] in a line: Growth inhibition of human MIAPaCa2 cells at 50 uM after 72 hrs by MTT assay. The following applies: MIA PaCa-2, 72 h, read-out: GI.
The test system of assay [5] is MCF7. In words: Growth inhibition of human MCF7 cells at 30 uM after 72 hrs by MTT assay. The following applies: MCF7, 72 h, read-out: GI.
Assay [6] deals with MCF7. In words: Growth inhibition of human MCF7 cells at 50 uM after 72 hrs by MTT assay. The following applies: MCF7, 72 h, read-out: GI.
Assay [7] deals with HepG2. In words: Growth inhibition of human HepG2 cells at 30 uM after 72 hrs by MTT assay. The following applies: HepG2, 72 h, read-out: GI.
Assay [8] deals with HepG2. Briefly: Growth inhibition of human HepG2 cells at 50 uM after 72 hrs by MTT assay. The following applies: HepG2, 72 h, read-out: GI.
Assay [9] concerns SK-N-SH. Briefly: Growth inhibition of human SK-N-SH cells at 30 uM after 72 hrs by MTT assay. As to conditions: read-out: GI.
Assay [10] concerns SK-N-SH. Briefly: Growth inhibition of human SK-N-SH cells at 50 uM after 72 hrs by MTT assay. As to conditions: read-out: GI.

Turning to `C=CCc1ccc(OCc2cn(-c3ccc(Br)cc3)nn2)c(O)c1`, the inhibition of growth at 30 µM was 22.1% in [1]; 43.3% in [3]; 19.4% in the assay with MCF7 [5]; 8.9% in the assay on HepG2 [7]; 38.3% in the assay on SK-N-SH [9]. For the same molecule, the inhibition of growth at 50 µM in [2] came out at 25.6%; in assay [4], 47.3%; in the assay on MCF7 [6], 29.1%; with HepG2 [8], 9.5%; in the assay on SK-N-SH [10], 61.7%.

Take `C=CCc1ccc(OCc2cn(-c3cccc([N+](=O)[O-])c3)nn2)c(O)c1`: the inhibition of growth at 30 µM stood at 29.8% in [1]; 42.9% in assay [3]; 42.3% with MCF7 [5]; 15.2% in the assay with HepG2 [7]; 31.1% in the assay on SK-N-SH [9]. Moreover, the inhibition of growth at 50 µM in assay [2] turned out to be 65.5%; in [4], 58.8%; in the assay on MCF7 [6] it was 56.5%; with HepG2 [8] it was 30.2%; in the assay with SK-N-SH [10], 68.9%.

Consider `C=CCc1ccc(OCc2cn(-c3cc(OC)c(OC)c(OC)c3)nn2)c(O)c1`, for which the inhibition of growth at 30 µM in assay [1] was 32.8%; in assay [3], 41.1%; in the assay with MCF7 [5], 37.3%; in the assay on HepG2 [7], 1.2%; in the assay with SK-N-SH [9], 44.1%. In addition, the inhibition of growth at 50 µM turned out to be 41.4% in assay [2]; 49.8% in assay [4]; 38.1% in the assay with MCF7 [6]; 2.5% with HepG2 [8]; 55.9% in the assay on SK-N-SH [10].

Turning to `C=CCc1ccc(OCc2cn(-c3ccccc3Cl)nn2)c(O)c1`, the inhibition of growth at 30 µM came to 38.7% in assay [1]; 46.6% in assay [3]; 58.3% in the assay with MCF7 [5]; 2.5% in the assay with HepG2 [7]; 10.2% in the assay with SK-N-SH [9]. For the same molecule, the inhibition of growth at 50 µM is 43.2% in assay [2]; 57.7% in [4]; 34.3% in the assay with MCF7 [6]; 4.7% in the assay on HepG2 [8]; 42.8% in the assay with SK-N-SH [10].

`C=CCc1cc(O)c(O)c(CN2CCC(CCO)CC2)c1`: the inhibition of growth at 30 µM was found to be 39.4% in [1]; 54.4% in assay [3]; 21.4% in the assay on MCF7 [5]; 2.5% with HepG2 [7]; 15.3% in the assay on SK-N-SH [9]. For the same molecule, the inhibition of growth at 50 µM turned out to be 52.1% in assay [2]; 71.8% in assay [4]; 33.3% with MCF7 [6]; 2% in the assay on HepG2 [8]; 40.6% with SK-N-SH [10].

With `C=CCc1cc(O)c(O)c(CN2CCC(CO)CC2)c1`, the inhibition of growth at 30 µM in assay [1] stood at 37.7%; in assay [3] it was 34.1%; in the assay with MCF7 [5] it was 26.2%; with HepG2 [7], 4.7%; in the assay with SK-N-SH [9], 21.9%. Besides, the inhibition of growth at 50 µM in [2] is 43.3%; in [4], 38.6%; with MCF7 [6], 32.3%; in the assay with HepG2 [8] it was 5.4%; in the assay with SK-N-SH [10], 49.4%.

As to `C#CCOc1ccc(CC=C)cc1O`, the inhibition of growth at 30 µM in [1] stood at 30.7%; in assay [3], 27.4%; with MCF7 [5] it was 23.7%; in the assay with HepG2 [7], 1.5%; in the assay on SK-N-SH [9] it was 11.8%. For the same molecule, the inhibition of growth at 50 µM in [2] came out at 34.2%; in assay [4] it was 30.3%; in the assay with MCF7 [6] it was 15.8%; in the assay on HepG2 [8] it was 5.6%; in the assay with SK-N-SH [10], 88.4%.

For the origin of these results see ChEMBL document CHEMBL3407403, “Synthetic modification of hydroxychavicol by Mannich reaction and alkyne-azide cycloaddition derivatives depicting cytotoxic potential” (Eur J Med Chem, 2015).
